Read-outs that look alike come from different tables or passages of the source.
How the values were obtained:
[1] = tested on: HT29 colon carcinoma cells; assay: Cytotoxicity assay (SRB); assay type: cell-based; details: Homo sapiens, read-out: SRB IC50 (concentration required to inhibit growth by 50%)
[2] = tested on: HT29 cells; assay: Mitosis inhibition assay (MIA), checkpoint abrogation after etoposide; assay type: cell-based; details: Homo sapiens, HT-29, etoposide 50 μM 1 hour, then compound with nocodazole 100 ng/mL, 21 hours, read-out: MIA IC50 (concentration required to allow 50% of cells to enter mitosis)
[3] = molecular target: T1, CHK1 (Homo sapiens, UniProt O14757); assay: CHK1 kinase function inhibition (DELFIA assay, phosphorylation of CDC25C peptide); assay type: biochemical; details: CHK1 1 nM, ATP 30 μM, 30 minutes at room temperature
T1 sequence (O14757 1-476): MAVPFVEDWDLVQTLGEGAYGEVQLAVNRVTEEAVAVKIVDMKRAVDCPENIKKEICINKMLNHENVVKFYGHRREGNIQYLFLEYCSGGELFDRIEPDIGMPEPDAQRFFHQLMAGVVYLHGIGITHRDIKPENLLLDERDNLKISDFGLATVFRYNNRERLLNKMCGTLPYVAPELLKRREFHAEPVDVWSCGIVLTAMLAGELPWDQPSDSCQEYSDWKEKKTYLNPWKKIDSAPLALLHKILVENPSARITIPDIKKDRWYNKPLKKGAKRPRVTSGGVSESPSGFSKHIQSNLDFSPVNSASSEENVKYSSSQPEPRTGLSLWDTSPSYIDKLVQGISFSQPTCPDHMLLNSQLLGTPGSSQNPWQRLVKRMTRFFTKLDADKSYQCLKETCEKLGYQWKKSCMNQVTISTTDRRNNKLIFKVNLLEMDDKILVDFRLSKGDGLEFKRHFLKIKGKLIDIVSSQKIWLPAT

Row | IC50 [2] [µM] | IC50 [3] [µM] | Compound | IC50 ([1]; HT-29, 96 hours) [µM] | IC50 ([1]; HT-29, 96 h) [µM]
1 | ≤ 10 | ≤ 1 | COCCNc1cccc2cc(Nc3cnc(C#N)c(O[C@@H]4CCNC4)n3)ncc12 [AA-037] | ≤ 10 | –
2 | – | – | N#Cc1ncc(Nc2cc3cccc(Cl)c3cn2)nc1OCC1CCNCC1 [AA-006] | – | ≤ 10
3 | ≤ 10 | ≤ 1 | N#Cc1cnc(Nc2cc3cccc(N)c3cn2)cn1 [AA-061, 5-(8-Aminoisoquinolin-3-ylamino)pyrazine-2-carbonitrile] | ≤ 10 | –
4 | ≤ 10 | ≤ 1 | N#Cc1ncc(Nc2cc3ccccc3cn2)nc1O[C@@H]1CCNC1 [AA-050] | ≤ 10 | –
5 | ≤ 10 | ≤ 1 | N#Cc1ncc(Nc2cc3cccc(Br)c3cn2)nc1O[C@@H]1CCNC1 [AA-052] | ≤ 10 | –
6 | ≤ 10 | ≤ 1 | CNc1cccc2cc(Nc3cnc(C#N)c(OC(C)CN(C)C)n3)ncc12 (centres unmarked) [AA-060] | ≤ 10 | –
7 | ≤ 10 | ≤ 1 | N#Cc1ncc(Nc2cc3cccc(Cl)c3cn2)nc1O[C@@H]1CCNC1 [AA-008, (R)-5-(8-Chloroisoquinolin-3-ylamino)-3-(pyrrolidin-3-yloxy)pyrazine-2-carbonitrile] | ≤ 10 | –
8 | ≤ 10 | ≤ 1 | Cc1cccc2cc(Nc3cnc(C#N)c(OC(C)CN(C)C)n3)ncc12 (centres unmarked) [AA-025] | ≤ 10 | –
9 | – | ≤ 1 | Cn1cnc2cnc(Nc3cnc(C#N)c(OCC4CCNCC4)n3)cc21 | – | –
10 | ≤ 10 | ≤ 1 | N#Cc1cnc(Nc2cc3cccc(NCCO)c3cn2)cn1 [AA-031, 5-(8-(2-Hydroxyethylamino)isoquinolin-3-ylamino)pyrazine-2-carbonitrile] | ≤ 10 | –
11 | ≤ 10 | ≤ 1 | CC(CN(C)C)Oc1nc(Nc2cc3cccc(NCCCO)c3cn2)cnc1C#N (centres unmarked) [AA-034] | ≤ 10 | –
12 | ≤ 10 | ≤ 1 | N#Cc1ncc(Nc2cc3cccc(F)c3cn2)nc1O[C@@H]1CCNC1 [AA-072] | – | –
13 | – | 1 to 10 | N#Cc1ncc(Nc2cc3cccc(NCCO)c3cn2)nc1OCC1CCOC1 (centres unmarked) [AA-047] | – | –
14 | – | 1 to 10 | Cc1cccc2cc(Nc3cnc(C#N)cn3)ncc12 [AA-024] | – | –
15 | – | ≤ 1 | CN1CCCC(Oc2nc(Nc3cc4[nH]cnc4cn3)cnc2C#N)C1 (centres unmarked) [BB-025] | – | –
16 | – | ≤ 1 | CC(=O)Nc1cccc2cc(Nc3cnc(C#N)cn3)ncc12 [AA-062, N-(3-(5-Cyanopyrazin-2-ylamino)isoquinolin-8-yl)acetamide] | – | –
17 | – | 1 to 10 | N#Cc1cnc(Nc2cc3[nH]c(-c4ccc(N5CCNCC5)cc4)nc3cn2)cn1 [BB-006] | – | –
18 | – | 1 to 10 | COc1cccc2cc(Nc3cnc(C#N)cn3)ncc12 [AA-021, 5-(8-methoxyisoquinolin-3-ylamino)pyrazine-2-carbonitrile] | – | –
19 | – | 1 to 10 | N#Cc1cnc(Nc2cc3c(cn2)ncn3C2CCNCC2)cn1 [BB-022, 5-(1-(Piperidin-4-yl)-1H-imidazo[4,5-c]pyridin-6-ylamino)pyrazine-2-carbonitrile] | – | –
20 | ≤ 10 | ≤ 1 | C[C@H](C[N+](C)(C)[O-])Oc1nc(Nc2cc3cccc(Cl)c3cn2)cnc1C#N [AA-071, (R)-2-(6-(8-Chloroisoquinolin-3-ylamino)-3-cyanopyrazin-2-yloxy)-N,N-dimethylpropan-1-amine oxide] | – | –
21 | – | ≤ 1 | N#Cc1ncc(Nc2cc3[nH]cnc3cn2)nc1O[C@@H]1CCNC1 [BB-027] | – | –
22 | ≤ 10 | – | COCCNc1cccc2cc(Nc3cnc(C#N)c(O[C@H](C)CN(C)C)n3)ncc12 [AA-039] | ≤ 10 | –
23 | ≤ 10 | 1 to 10 | COCCNC(=O)c1cccc2cc(Nc3cnc(C#N)c(OC(C)CN(C)C)n3)ncc12 (centres unmarked) [AA-066] | – | –
24 | – | ≤ 1 | N#Cc1ncc(Nc2cc3cccc(NCCCN4CCOCC4)c3cn2)nc1OCC1CC1 [AA-028] | – | –
25 | – | – | N#Cc1ncc(Nc2cc3ccccc3cn2)nc1OCC1CCNCC1 [AA-003] | – | ≤ 10
26 | – | 1 to 10 | N#Cc1cnc(Nc2cc3c(cn2)ncn3CCN)cn1 [BB-019, 5-(1-(2-Aminoethyl)-1H-imidazo[4,5-c]pyridin-6-ylamino)pyrazine-2-carbonitrile] | – | –
27 | – | ≤ 1 | N#Cc1cnc(Nc2cc3[nH]c(CCC4CCNCC4)nc3cn2)cn1 [BB-011] | – | –
28 | – | 1 to 10 | N#Cc1cnc(Nc2cc3cccc(-c4cc[nH]n4)c3cn2)cn1 [AA-019, 5-(8-(1H-pyrazol-3-yl)isoquinolin-3-ylamino)pyrazine-2-carbonitrile] | – | –

Row | IC50 [2] [µM] | IC50 [3] [µM] | Compound | IC50 ([1]; HT-29, 96 hours) [µM] | IC50 ([1]; HT-29, 96 h) [µM]
29 | – | 1 to 10 | N#Cc1cnc(Nc2cc3cc(Cl)ccc3cn2)cn1 [AA-018, 5-(6-Chloroisoquinolin-3-ylamino)pyrazine-2-carbonitrile] | – | –
30 | – | 1 to 10 | COc1cc(OC)c2cnc(Nc3cnc(C#N)cn3)cc2c1 [AA-011, 5-(6,8-Dimethoxyisoquinolin-3-ylamino)pyrazine-2-carbonitrile] | – | –
31 | – | ≤ 1 | CN1CCCC(COc2nc(Nc3cc4cccc(Cl)c4cn3)cnc2C#N)C1 (centres unmarked) [AA-009] | – | –
32 | – | 1 to 10 | N#Cc1ncc(Nc2cc3ccccc3cn2)nc1OCC(=O)O [AA-069, 2-(3-Cyano-6-(isoquinolin-3-ylamino)pyrazin-2-yloxy)acetic acid] | – | –
33 | – | ≤ 1 | N#Cc1cnc(Nc2cc3c(cn2)ncn3[C@H]2CCCNC2)cn1 [BB-021, (S)-5-(1-(Piperidin-3-yl)-1H-imidazo[4,5-c]pyridin-6-ylamino)pyrazine-2-carbonitrile] | – | –
34 | – | 1 to 10 | N#Cc1cnc(Nc2cc3c(cn2)ncn3CC2CCCNC2)cn1 (centres unmarked) [BB-020, 5-(1-(Piperidin-3-ylmethyl)-1H-imidazo[4,5-c]pyridin-6-ylamino)pyrazine-2-carbonitrile] | – | –
35 | – | – | N#Cc1ncc(Nc2cc3ccccc3cn2)nc1OC1CCCNC1 (centres unmarked) [AA-015] | – | ≤ 10
36 | – | ≤ 1 | CC(=O)Nc1cccc2cc(Nc3cnc(C#N)c(O[C@H](C)CN(C)C)n3)ncc12 [AA-064] | – | –
37 | – | 1 to 10 | N#Cc1cnc(Nc2cc3c(cn2)ncn3[C@@H]2CCCNC2)cn1 [BB-023, (R)-5-(1-(Piperidin-3-yl)-1H-imidazo[4,5-c]pyridin-6-ylamino)pyrazine-2-carbonitrile] | – | –
38 | ≤ 10 | ≤ 1 | COCCCNc1cccc2cc(Nc3cnc(C#N)cn3)ncc12 [AA-035] | – | –
39 | – | 1 to 10 | CC(C)CCOc1nc(Nc2cc3cccc(NCCO)c3cn2)cnc1C#N [AA-046] | – | –
40 | – | ≤ 1 | CN1CCCC(COc2nc(Nc3cc4[nH]cnc4cn3)cnc2C#N)C1 (centres unmarked) [BB-026] | – | –
41 | – | ≤ 1 | CC(CN(C)C)Oc1nc(Nc2cc3[nH]cnc3cn2)cnc1C#N (centres unmarked) [BB-024, 5-(3H-Imidazo[4,5-c]pyridin-6-ylamino)-3-(1-(dimethylamino)propan-2-yloxy)pyrazine-2-carbonitrile] | – | –
42 | – | ≤ 1 | COc1nc(Nc2cc3cccc(NCCO)c3cn2)cnc1C#N [AA-042] | – | –
43 | ≤ 10 | ≤ 1 | N#Cc1ncc(Nc2cc3cccc(NCCN4CCOCC4)c3cn2)nc1OCC1CCOC1 (centres unmarked) [AA-029] | – | –
44 | – | 1 to 10 | c1nc2cnc(Nc3cncc(OCC4CCNCC4)n3)cc2[nH]1 [BB-013] | – | –
45 | – | ≤ 1 | N#Cc1ncc(Nc2cc3cccc(NCCO)c3cn2)nc1OCC1CC1 [AA-045] | – | –
46 | – | 1 to 10 | CCOC(=O)COc1nc(Nc2cc3ccccc3cn2)cnc1C#N [AA-068, Ethyl 2-(3-cyano-6-(isoquinolin-3-ylamino)pyrazin-2-yloxy)acetate] | – | –
47 | – | 1 to 10 | N#Cc1cnc(Nc2cc3cccc(Br)c3cn2)cn1 [AA-017, 5-(8-Bromoisoquinolin-3-ylamino)pyrazine-2-carbonitrile] | – | –
48 | ≤ 10 | ≤ 1 | COc1nc(Nc2cc3cccc(NCCN4CCOCC4)c3cn2)cnc1C#N [AA-030] | – | –
49 | ≤ 10 | ≤ 1 | COCCNc1cccc2cc(Nc3cnc(C#N)cn3)ncc12 [AA-036] | – | –
50 | – | 1 to 10 | COCCC(=O)Nc1cccc2cc(Nc3cnc(C#N)cn3)ncc12 [AA-063, N-(3-(5-Cyanopyrazin-2-ylamino)isoquinolin-8-yl)-3-methoxypropanamide] | – | –
51 | – | 1 to 10 | Clc1cccc2cc(Nc3cncc(OCC4CCNCC4)n3)ncc12 [AA-005] | – | –
52 | – | 1 to 10 | N#Cc1cnc(Nc2cc3[nH]c(C4CC4)nc3cn2)cn1 [BB-001, 5-(2-Cyclopropyl-1H-imidazo[4,5-c]pyridin-6-ylamino)pyrazine-2-carbonitrile] | – | –
53 | – | ≤ 1 | COc1nc(Nc2cc3ccccc3cn2)cnc1C#N [AA-048] | – | –
54 | – | 1 to 10 | N#Cc1cnc(Nc2cc3cc[nH]c3cn2)cn1 [CC-001, 5-(1H-Pyrrolo[2,3-c]pyridin-5-ylamino)pyrazine-2-carbonitrile] | – | –
55 | – | 1 to 10 | N#Cc1cnc(Nc2cc3c(Br)ccc(Cl)c3cn2)cn1 [AA-070, 5-(5-Bromo-8-chloroisoquinolin-3-ylamino)pyrazine-2-carbonitrile] | – | –

Row | Compound | IC50 [2] [µM] | IC50 [3] [µM] | IC50 ([1]; HT-29, 96 hours) [µM] | IC50 ([1]; HT-29, 96 h) [µM]
56 | CC(CN(C)C)Oc1nc(Nc2cc3cccc(Cl)c3cn2)cnc1C#N (centres unmarked) [AA-010] | ≤ 10 | – | – | ≤ 10
57 | C[C@H](CN(C)C)Oc1nc(Nc2cc3ccccc3cn2)cnc1C#N [AA-022] | ≤ 10 | – | – | ≤ 10
58 | N#Cc1ncc(Nc2cc3cccc(Cl)c3cn2)nc1OC1CCCNC1 (centres unmarked) [AA-007] | ≤ 10 | – | – | ≤ 10
59 | C[C@H](CN(C)C)Oc1nc(Nc2cc3cccc(Cl)c3cn2)cnc1C#N [AA-023] | ≤ 10 | – | – | ≤ 10
